How the values were obtained:
Rattus norvegicus [1] = assay: Effect on heart rate in anaesthetized Wistar rat assessed as number of beats per minute at 1 mg/kg, iv after 5 mins by electrocardiography; assay type: functional
[2] = Acute toxicity in iv dosed anaesthetized Wistar rat; assay type: organism-based; conditions: in vivo
Rattus norvegicus [3] = assay: Antiarrhythmic activity against adrenaline-induced arrhythmia in iv dosed anaesthetized Wistar rat assessed as inhibition of premature ventricular beats pretreated 60 mins prior to adrenaline challenge; assay type: functional; conditions: Heart
Rattus norvegicus [4] = assay: Effect on heart rate in anaesthetized Wistar rat assessed as number of beats per minute at 1 mg/kg, iv after 1 min by electrocardiography; assay type: functional
Rattus norvegicus [5] = assay: Effect on electrocardiogram in anaesthetized Wistar rat assessed as change in P-Q interval at 1 mg/kg, iv after 1 min by electrocardiography; assay type: functional
[6] = Therapeutic index, ratio of LD50 for Wistar rat to antiarrhythmic ED50 for Wistar rat; assay type: organism-based, Heart; conditions: in vivo, read-out: TI

| SMILES | Activity (Rattus norvegicus [1]) [min⁻¹] | LD50 [2] [mg/kg] | ED50 (Rattus norvegicus [3]) [mg/kg] | Activity (Rattus norvegicus [4]) [min⁻¹] | Activity (Rattus norvegicus [5]) [ms] | selectivity ratio [6] |
| --- | --- | --- | --- | --- | --- | --- |
| COc1ccccc1OCCNCC(O)COc1cccc2[nH]c3ccccc3c12 (stereo not drawn) [CARVEDILOL] | 340.3 | 25 | 0.25 | 345.2 | 50 | – |
| CC(C)NCC(O)COc1cccc2[nH]ccc12 (stereo not drawn) [PINDOLOL] | – | 39 | 1.05 | – | – | 37 |

Reference: ChEMBL document CHEMBL1153880, “Synthesis and adrenolytic activity of 1-(1H-indol-4-yloxy)-3-{[2-(2-methoxyphenoxy)ethyl]amino}propan-2-ol and its enantiomers. Part 1” (Eur J Med Chem, 2009)
